# Reference: patent US5747235A, “Silver halide light sensitive emulsion layer having enhanced photographic sensitivity” (Eastman Kodak Company, priority 1996, dated 1998)
# Structures can show the parent of a compound that is named as a salt.
# Assays:
# [1] = Example 1: photographic speed and fog, 365 nm exposure, emulsion T-1; conditions: undyed; for S365: control=100
# Description: This chemically sensitized emulsion was then used to prepare the experimental coating variations indicated in Table I. All of the experimental coating variations in Table I contained the hydroxybenzene 2,4-disulfocatechol (HB3) at a concentration of 13 mmole/mole Ag, added to the melt before the addition of any further addenda. The fragmentable electron donor compounds as indicated in Table I were added from an aqueous potassium bromide solution, or from a methanol solution, before additional water, gelatin, and surfactant were added to the emulsion melts.
# (§1) For photographic evaluation, each of the coating strips was exposed for 0.1 sec to a 365 nm emission line of a Hg lamp filtered through a Kodak Wratten filter number 18A and a step wedge ranging in density from 0 to 4 density units in 0.2 density steps. The exposed film strips were developed for 6 min in Kodak Rapid X-ray Developer (KRX). S365, relative sensitivity at 365 nm, was evaluated at a density of 0.2 units above fog.
# [2] = Example 8: photographic speed and fog, 365 nm exposure, cubic emulsion C-2; design: Fog: unit not given here
# Description: as §1
# (§2) Two cubic emulsions with uniform halide composition were precipitated using deionized gelatin. Emulsion C-1 was a AgErI emulsion with a 3% I content and a cubic edge length of 0.47 μm and emulsion C-2 was an AgBr emulsion with a cubic edge length of 0.52 μm. The emulsions were sulfur sensitized by adding 1,3-dicarboxymethyl-1,3-dimethyl-2-thiourea at 40° C.; the temperature was then raised to 60° C. at a rate of 5° C./3 min and the emulsions held for 20 min before cooling to 40° C. The amounts of the sulfur sensitizing compound used were 1.0×10^-5 mole/mole Ag for emulsion C-1, and 6.0×10^-6mole/mole Ag for emulsion C-2. These experimental coating variations contained the hydroxybenzene, 2,4-disulfocatechcol (HB3) at a concentration of 13 mmole/mole Ag, added to the melt before the addition of any further compounds. Some of the variations were then dyed with the sensitizing dye D-II, added from methanol solution. The fragmentable electron donor compounds were then added to the emulsion melts at 40° C. and coatings were prepared and tested as described in Example 1 except that the additional gelatin used to prepare the coatings described in Table VIII was deionized gelatin. Also, the dyed coatings were tested for their response to a spectral exposure as described in Example 3.
# [3] = Example 8: spectral sensitivity, cubic emulsion C-1; conditions: dye II 0.44 x10^-3, dyed control=100
# Description: (§3) Additional testing was carried out to determine the response of the coatings described in Table III to a spectral exposure. Each of the coating strips was exposed for 0.1 sec on a wedge spectrographic instrument that covers the wavelength range from 400 to 750 nm. The instrument contains a tungsten light source and a step tablet ranging in density from 0 to 3 density units in 0.3 density steps. After developing exposed strips for 6 min in Kodak Rapid X-ray Developer (KRX), speed was read at 10 nm wavelength intervals at a density of 0.3 above fog. Correction for the instrument's variation in spectral irradiance with wavelength was done with a computer and a plot of log sensitivity vs. wavelength was generated. For this exposure, for each dye used, the relative sensitivity was set equal to 100 for the control coating with no fragmentable two-electron donor compound added.
# as §2
# [4] = Example 6: spectral sensitivity, wedge spectrographic exposure, emulsion T-2; conditions: dye II 0.86 x10^-3, dyed control=100
# Description: as §3
# The chemically sensitized AgErI tabular emulsion T-2 as described in Example 3 was used to prepare the experimental coating variations listed in Table VI, comparing fragmentable electron donating compounds PMT-1 and PMT-2 that contain a phenylmercaptotetrazole as the silver halide adsorbing group. For some of the experimental variations listed in Table VI the red sensitizing dye D-II was added from methanol solution to the emulsion at 40° C. after the chemical sensitization. The fragmentable electron donating compounds were then added to the emulsion and coatings prepared and tested for sensitivity at 365 nm and for spectral sensitivity as described in Example 3.
# [5] = Example 12: photographic sensitivity and fog, color format, blue sensitized emulsion T-2; conditions: for Photographic Sensitivity SWR2B: control=100
# Description: The AgBrI tabular silver halide emulsion T-2 from Example 3 was optimally chemically and spectrally sensitized by adding NaSCN, 1.07 mmole of the blue sensitizing dye D-I per mole of silver, Na3 Au(S2 O3)2 ·2H2 O, Na2 S2 O3 ·5H2 O, and a benzothiazolium finish modifier and then subjecting the emulsion to a heat cycle to 65° C. The hydroxybenzene, 2,4-disulfocatechcol (HB3) at a concentration of 13×10^-3 mole/mole Ag was added to the emulsion melt before the start of the chemical sensitization procedure. This chemically sensitized emulsion was then used to prepare the experimental coating variations given in Table X. For all the variations in Table X, the antifoggant and stabilizer tetraazaindene (TAI) was added to the emulsion melt in an amount of 1.75 g/mole Ag before any further addenda. The fragmentable two-electron donors S-3, S-9, S-6, or S-8 were then added to the emulsion melt.
# The melts were prepared for coating by adding additional water, deionized gelatin and coating surfactants. Coatings were prepared by combining the emulsion melts with a melt containing deionized gelatin and an aqueous dispersion of the cyan-forming color coupler CC-1 and coating the resulting mixture on acetate support. The final coatings contained Ag at 0.81 g/m^2, coupler at 1.61 g/m^2, and gelatin at 3.23 g/m^2. The coatings were overcoated with a protective layer containing gelatin at 1.08 g/m^2, coating surfactants, and a bisvinylsulfonylmethyl ether as a gelatin hardening agent. The structure of the color coupler CC-1 is given below: [drawing 120]
# For photographic evaluation, each of the coating strips was exposed for 0.01 sec to a 3000K color temperature tungsten lamp filtered to give an effective color temperature of 5500K and further filtered through a Kodak Wratten filter number 2B, and a step wedge ranging in density from 0 to 4 density units in 0.20 density steps. This exposure gives light absorbed mainly by the blue sensitizing dye. The exposed film strips were developed for 31/4 minutes in Kodak C-41 color developer. SWR2B, relative sensitivity for this filtered exposure, was evaluated at a cyan density of 0.15 units above fog.
# The AgBrI tabular emulsion T-2 as described in Example 3 was sensitized as described in Example 10 except that the hydroxybenzene HB3 was added at the completion of the chemical sensitization procedure. For all the variations in Table XII, the antifoggant and stabilizer tetraazaindene (TAI) was added to the emulsion melt in an amount of 1.75 g/mole Ag before any further addenda. The fragmentable electron donors PMT-1 or PMT-2 were then added to the emulsion melt. These compounds contain a phenylmercaptotetrazole as the silver halide adsorbing group. The melts were then coated and tested as described in Example 10.
# [6] = 0.16 x10^-3 mol/mol Ag, no dye, control=100
smiles,measurement,setting,value
"CCSCCN(c1ccc(C)cc1)[C@@H](C)C(=O)[O-].[Na+] [Compound S-3, N-(4-Methylphenyl)-N-(2-ethylthio-ethyl)alanine sodium salt]",Fog,[1]; 0.011 x10^-3 mole/mole Ag,0.05
same,S365,[1]; 0.011 x10^-3 mole/mole Ag,118
same,Fog,[1]; 0.022 x10^-3 mole/mole Ag,0.08
same,S365,[1]; 0.022 x10^-3 mole/mole Ag,132
same,Fog,[1]; 0.044 x10^-3 mole/mole Ag,0.22
same,S365,[1]; 0.044 x10^-3 mole/mole Ag,129
CCSCCN(c1ccc(C)cc1)C(CC(=O)O)C(=O)O (stereo not shown) [Compound S-8],Fog,[1]; 0.022 x10^-3 mole/mole Ag,0.08
same,S365,[1]; 0.022 x10^-3 mole/mole Ag,126
same,Fog,[1]; 0.07 x10^-3 mole/mole Ag,0.13
same,S365,[1]; 0.07 x10^-3 mole/mole Ag,135
"CCSCCN(c1ccccc1)C(C)C(=O)O (stereo not shown) [Compound S-9, N-(Phenyl)-N-(2-thioethyl-ethyl)alanine sodium salt]",Fog,"[2]; 0.005 x10^-3 mol/mol Ag, dye II 0.40 x10^-3",0.16
same,S365,"[2]; 0.005 x10^-3 mol/mol Ag, dye II 0.40 x10^-3, dyed control 76",141
same,Fog,"[2]; 0.016 x10^-3 mol/mol Ag, dye II 0.40 x10^-3",0.19
same,S365,"[2]; 0.016 x10^-3 mol/mol Ag, dye II 0.40 x10^-3, dyed control 76",166
same,Fog,"[2]; 0.05 x10^-3 mol/mol Ag, no dye",0.06
same,S365,"[2]; 0.05 x10^-3 mol/mol Ag, no dye, control=100",204
same,Fog,"[2]; 0.16 x10^-3 mol/mol Ag, no dye",0.06
same,S365,[2]; [6],209
same,Sλ,[3]; 0.005 x10^-3 mol/mol Ag,145
same,Sλ,[3]; 0.016 x10^-3 mol/mol Ag,178
CCSCCN(c1ccc(C(=O)O)cc1)C(C)C(=O)O (stereo not shown) [Compound S-11],Fog,"[2]; 0.05 x10^-3 mol/mol Ag, dye II 0.40 x10^-3",0.10
same,S365,"[2]; 0.05 x10^-3 mol/mol Ag, dye II 0.40 x10^-3, dyed control 76",145
same,Fog,"[2]; 0.16 x10^-3 mol/mol Ag, dye II 0.40 x10^-3",0.14
same,S365,"[2]; 0.16 x10^-3 mol/mol Ag, dye II 0.40 x10^-3, dyed control 76",166
same,Fog,"[2]; 0.16 x10^-3 mol/mol Ag, no dye",0.06
same,S365,[2]; [6],200
same,Fog,"[2]; 0.50 x10^-3 mol/mol Ag, no dye",0.06
same,S365,"[2]; 0.50 x10^-3 mol/mol Ag, no dye, control=100",209
same,Sλ,[3]; 0.05 x10^-3 mol/mol Ag,151
same,Sλ,[3]; 0.16 x10^-3 mol/mol Ag,178
Cc1ccc(N(CCC(=O)Nc2cccc(-n3nnnc3S)c2)C(C)C(=O)O)cc1 (stereo not shown) [PMT-1],Sλ,[4]; 0.0006 x10^-3 mole/mole Ag,115
same,Sλ,[4]; 0.0017 x10^-3 mole/mole Ag,145
same,Sλ,[4]; 0.0055 x10^-3 mole/mole Ag,126
same,Fog,[5]; 0.5 x10^-6 mol/mol Ag,0.09
same,Photographic Sensitivity SWR2B,[5]; 0.5 x10^-6 mol/mol Ag,138
same,Fog,[5]; 1.5 x10^-6 mol/mol Ag,0.15
same,Photographic Sensitivity SWR2B,[5]; 1.5 x10^-6 mol/mol Ag,166
CC(C(=O)O)N(CCC(=O)Nc1cccc(-n2nnnc2S)c1)c1ccccc1 (stereo not shown) [PMT-2],Sλ,[4]; 0.0005 x10^-3 mole/mole Ag,123
same,Sλ,[4]; 0.0016 x10^-3 mole/mole Ag,145
same,Sλ,[4]; 0.005 x10^-3 mole/mole Ag,151
same,Fog,[5]; 0.5 x10^-6 mol/mol Ag,0.09
same,Photographic Sensitivity SWR2B,[5]; 0.5 x10^-6 mol/mol Ag,141
same,Fog,[5]; 1.4 x10^-6 mol/mol Ag,0.10
same,Photographic Sensitivity SWR2B,[5]; 1.4 x10^-6 mol/mol Ag,166
same,Fog,[5]; 4.5 x10^-6 mol/mol Ag,0.16
same,Photographic Sensitivity SWR2B,[5]; 4.5 x10^-6 mol/mol Ag,191
